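Following 48 hours of exposure in 96-well plates, responses at five concentrations were used to interpolate endpoints linearly. GI50 is the concentration that inhibits growth by half.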 Activity calls are given as the source filed them. No stated cut-off is given here; in the data, active = GI50 up to about 1.1 µM and inactive = higher.
What was measured:
Test in all cases: NCI-60 cell line screen, 48 h
[1] = test system: Malme-3M
[2] = test system: 786-0
[3] = test system: UACC-257
[4] = test system: HOP-92
[5] = test system: BT-549
[6] = test system: K562
[7] = test system: RPMI-8226
[8] = test system: SNB-19
[9] = test system: U-251
[10] = test system: NCI-H226
[11] = test system: CCRF-CEM
[12] = test system: SN12C
[13] = test system: SK-MEL-28
[14] = test system: HCC 2998
[15] = test system: T47D
[16] = test system: SNB-75
[17] = test system: SK-OV-3
[18] = test system: NCI-H522
[19] = test system: IGROV-1
[20] = test system: LOX IMVI

Row | SMILES | GI50 [1] | GI50 [2] | GI50 [3] | GI50 [4] | GI50 [5] | GI50 [6] | GI50 [7] | GI50 [8] | GI50 [9] | GI50 [10] | GI50 [11] | GI50 [12] | GI50 [13] | GI50 [14] | GI50 [15] | GI50 [16] | GI50 [17] | GI50 [18] | GI50 [19] | GI50 [20]
1 | Cc1cc(C)c(N[S+]([O-])c2cccc(Cl)c2)c(C)c1 (stereo unspecified) | > 100 µM (inactive) | > 100 µM (inactive) | > 100 µM (inactive) | > 100 µM (inactive) | > 100 µM (inactive) | > 100 µM (inactive) | > 100 µM (inactive) | > 100 µM (inactive) | > 100 µM (inactive) | > 100 µM (inactive) | > 100 µM (inactive) | > 100 µM (inactive) | > 100 µM (inactive) | – | – | – | – | – | – | –
2 | CCN(CC)c1ccc(C2Nc3ccc4ccccc4c3C3=C2C(=O)CCC3)cc1 (stereo unspecified) | > 100 µM (inactive) | 19.4 µM (inactive) | > 100 µM (inactive) | – | 60.8 µM (inactive) | > 100 µM (inactive) | > 100 µM (inactive) | 37.3 µM (inactive) | 14.9 µM (inactive) | 35.8 µM (inactive) | > 100 µM (inactive) | 42 µM (inactive) | > 100 µM (inactive) | > 100 µM (inactive) | 39 µM (inactive) | 17.3 µM (inactive) | 38.4 µM (inactive) | – | – | –
3 | Cc1cc2c(cc1-c1cc3c(cc1C)C(C(C)C)=C(O)C(=O)/C3=C\Nc1c3ccccc3nc3ccccc13)/C(=C/Nc1c3ccccc3nc3ccccc13)C(=O)C(O)=C2C(C)C | 2.2 µM (inactive) | 2.72 µM (inactive) | 4.34 µM (inactive) | 5.73 µM (inactive) | 5.85 µM (inactive) | – | 4.52 µM (inactive) | 3.82 µM (inactive) | 4.02 µM (inactive) | 1.26 µM (inactive) | 3.51 µM (inactive) | 4.47 µM (inactive) | 7.03 µM (inactive) | – | 6.17 µM (inactive) | 2.32 µM (inactive) | 3.34 µM (inactive) | 1.13 µM (inactive) | 2.64 µM (inactive) | –
4 | COc1cc(OC2OC(COC(=O)c3cc(O)c(O)c(O)c3)C(O)C(O)C2O)ccc1O (stereo unspecified) | > 100 µM (inactive) | > 100 µM (inactive) | > 100 µM (inactive) | 32.7 µM (inactive) | 47.3 µM (inactive) | 32.7 µM (inactive) | > 100 µM (inactive) | > 100 µM (inactive) | > 100 µM (inactive) | > 100 µM (inactive) | 42.2 µM (inactive) | 77.8 µM (inactive) | > 100 µM (inactive) | > 100 µM (inactive) | – | > 100 µM (inactive) | – | 48 µM (inactive) | > 100 µM (inactive) | 29.5 µM (inactive)
5 | CC1=C2O[C@]3(O)C=C2C(=C(O)C1=O)[C@@H]1O[C@H](CC[C@H](C)/C=C(\C)C[C@@H](C)C[C@@H]3C)[C@H](C)[C@H](O)[C@H]1C [KENDOMYCIN] | 0.194 µM (active) | 0.149 µM (active) | 0.239 µM (active) | 0.13 µM (active) | 0.331 µM (active) | 0.166 µM (active) | 0.118 µM (active) | 0.977 µM (active) | 0.326 µM (active) | 1.12 µM (active) | 0.0473 µM (active) | 0.811 µM (active) | 0.229 µM (active) | 0.167 µM (active) | – | 0.394 µM (active) | 1.12 µM (active) | 0.218 µM (active) | 0.163 µM (active) | 0.24 µM (active)
6 | O=S(=O)(c1ccccc1)N1CN2CN(C1)CN(S(=O)(=O)c1ccccc1)C2 | – | > 100 µM (inactive) | > 100 µM (inactive) | > 100 µM (inactive) | > 100 µM (inactive) | > 100 µM (inactive) | > 100 µM (inactive) | > 100 µM (inactive) | 97.3 µM (inactive) | > 100 µM (inactive) | – | > 100 µM (inactive) | > 100 µM (inactive) | > 100 µM (inactive) | – | 22.7 µM (inactive) | > 100 µM (inactive) | – | > 100 µM (inactive) | > 100 µM (inactive)
7 | CSC(=S)NN=C1CCCC1.CSC(=S)NN=C1CCCC1.[Zn+2] | 12.5 µM (inactive) | 33.5 µM (inactive) | 24 µM (inactive) | 0.0415 µM (active) | 24 µM (inactive) | 50.4 µM (inactive) | 11.5 µM (inactive) | 40.9 µM (inactive) | 8.93 µM (inactive) | 43.9 µM (inactive) | < 0.01 µM (active) | 17.9 µM (inactive) | 72.4 µM (inactive) | – | 33.5 µM (inactive) | > 100 µM (inactive) | > 100 µM (inactive) | 15.7 µM (inactive) | 10.1 µM (inactive) | 10.7 µM (inactive)
8 | CC1(C)CC(=O)c2c(nc3ccc4ccccc4c3c2-c2ccc(NC(=O)CCCCC(=O)Nc3ccc(-c4c5c(nc6ccc7ccccc7c46)CC(C)(C)CC5=O)cc3)cc2)C1 | – | > 100 µM (inactive) | > 100 µM (inactive) | > 100 µM (inactive) | > 100 µM (inactive) | > 100 µM (inactive) | > 100 µM (inactive) | > 100 µM (inactive) | > 100 µM (inactive) | > 100 µM (inactive) | > 100 µM (inactive) | > 100 µM (inactive) | > 100 µM (inactive) | – | > 100 µM (inactive) | > 100 µM (inactive) | > 100 µM (inactive) | – | > 100 µM (inactive) | > 100 µM (inactive)
9 | Cc1cc(C)nc(NC(=S)Nc2ccccc2Cl)c1 | > 100 µM (inactive) | > 100 µM (inactive) | > 100 µM (inactive) | – | > 100 µM (inactive) | > 100 µM (inactive) | > 100 µM (inactive) | > 100 µM (inactive) | > 100 µM (inactive) | > 100 µM (inactive) | > 100 µM (inactive) | > 100 µM (inactive) | > 100 µM (inactive) | – | > 100 µM (inactive) | 73.1 µM (inactive) | > 100 µM (inactive) | > 100 µM (inactive) | > 100 µM (inactive) | > 100 µM (inactive)
10 | CC(C)(C)c1cc(C(C)(C)C)c(SS(=O)(=O)O)c(O)c1O | 97.5 µM (inactive) | 63.7 µM (inactive) | 79.1 µM (inactive) | 84.1 µM (inactive) | > 100 µM (inactive) | 0.246 µM (active) | 21.6 µM (inactive) | 46.8 µM (inactive) | 27.2 µM (inactive) | 40 µM (inactive) | 49 µM (inactive) | 67 µM (inactive) | 81.8 µM (inactive) | – | 33.7 µM (inactive) | 34.5 µM (inactive) | > 100 µM (inactive) | – | 55.7 µM (inactive) | 35.4 µM (inactive)
11 | CCOC(=O)C1(Cc2ccccc2)Cc2cc3c(cc2C1)CCC3 | 29.6 µM (inactive) | 38.1 µM (inactive) | 40.7 µM (inactive) | – | 25.2 µM (inactive) | 22.5 µM (inactive) | 20.6 µM (inactive) | 55.8 µM (inactive) | 30.8 µM (inactive) | 25.2 µM (inactive) | 16.5 µM (inactive) | 33.3 µM (inactive) | 38.8 µM (inactive) | 21.4 µM (inactive) | 26.7 µM (inactive) | > 10 µM (inactive) | 35 µM (inactive) | 30.3 µM (inactive) | 39 µM (inactive) | 18.8 µM (inactive)
12 | Nc1ncc(Cc2nc3ccccc3s2)s1 | 68.9 µM (inactive) | > 100 µM (inactive) | 76.7 µM (inactive) | 68.4 µM (inactive) | – | 56.4 µM (inactive) | 18.5 µM (inactive) | > 100 µM (inactive) | 90.4 µM (inactive) | 24.6 µM (inactive) | 30.3 µM (inactive) | > 100 µM (inactive) | > 100 µM (inactive) | > 100 µM (inactive) | 48.6 µM (inactive) | > 100 µM (inactive) | > 100 µM (inactive) | 53.1 µM (inactive) | 63.8 µM (inactive) | > 100 µM (inactive)
13 | OC1CCN2Cc3ccccc3N=C12 (stereo unspecified) | > 100 µM (inactive) | > 100 µM (inactive) | > 100 µM (inactive) | > 100 µM (inactive) | > 100 µM (inactive) | > 100 µM (inactive) | > 100 µM (inactive) | > 100 µM (inactive) | > 100 µM (inactive) | > 100 µM (inactive) | > 100 µM (inactive) | > 100 µM (inactive) | > 100 µM (inactive) | > 100 µM (inactive) | – | > 100 µM (inactive) | > 100 µM (inactive) | – | – | > 100 µM (inactive)
14 | CC(=O)NC1(C)CCC(C(C)(C)NC(C)=O)CC1 (stereo unspecified) | > 100 µM (inactive) | > 100 µM (inactive) | > 100 µM (inactive) | – | > 100 µM (inactive) | > 100 µM (inactive) | > 100 µM (inactive) | > 100 µM (inactive) | > 100 µM (inactive) | > 100 µM (inactive) | > 100 µM (inactive) | > 100 µM (inactive) | > 100 µM (inactive) | > 100 µM (inactive) | – | > 100 µM (inactive) | > 100 µM (inactive) | – | > 100 µM (inactive) | > 100 µM (inactive)
15 | NS(=O)(=O)c1cccc(NC(=S)NC(=O)Nc2ccc(Cl)c(Cl)c2)c1 | 11.5 µM (inactive) | 15.9 µM (inactive) | 27.4 µM (inactive) | 24 µM (inactive) | 16.1 µM (inactive) | 16.2 µM (inactive) | 16.9 µM (inactive) | 21.2 µM (inactive) | 22.3 µM (inactive) | – | 30.2 µM (inactive) | 17.7 µM (inactive) | 20.4 µM (inactive) | – | 18.1 µM (inactive) | 18.3 µM (inactive) | 21.4 µM (inactive) | 12.8 µM (inactive) | 20 µM (inactive) | 16.7 µM (inactive)
